Test results as given in patent US12522582B2 (Gilead Sciences, Inc., priority 2022, dated 2026).

Tests used:
[1] = tested on: human cryopreserved hepatocytes; experiment: Stability Assay in Cryopreserved Hepatocytes (human); format: in vitro ADME; settings: 1 μM, calculated from half-life using the well-stirred model
Method: Test compound was incubated at 1 μM with either rat or human cryopreserved hepatocytes (BioIVT, Westbury, NY) up to 6 hours at 37° C. in a 24-well plate format (1×10^6 cells/mL per well). At specified time points, samples were transferred to a 96-well plate and quenched with 2 volumes of a solution containing 90% acetonitrile 10% methanol 0.1% formic acid and internal standard. Sample plate was centrifuged at 3200 rpm for 15 min and supernatants transferred to a new plate containing half volume of water. The resulting solution was analyzed by LC-MS/MS. Data (analyte to internal standard peak area ratio) was plotted on a semi-log scale and fitted using an exponential fit. Assuming first order kinetics, the half-life (t1/2) and rate of metabolism were determined. Predicted hepatic clearance was calculated from the half-life using the well-stirred model.

HSV-2 virus (MS strain) [2] = experiment: HSV-2 Cellomics Assay (immunofluorescence of HSV protein gD in infected ARPE-19 cells)
HSV-2 virus (MS strain) [3] = experiment: HSV qPCR Assay (HSV replication in ARPE-19 cells)
[4] = MT-4 CC50 Assay (CellTiter Glo); format: cell-based; settings: human, MT-4 cells, luminescence, read-out: CC50-MT4
Method: Compounds were tested in 384-well plates: 18 compounds in duplex. Compounds were diluted in 7 points, 3-fold with DMSO by Bravo. Assay plate, which contains 20 uL medium with compounds, was seeded 2000 MT-4 cells in 20 uL/well by Multi-drop to start the assay. The plate was incubated at 37° C. for 5 days. On 6th day, the CellTiter Glo 40 uL was added in each well. Luminescence was read by Victor II.

[5] = Human alphaherpesvirus 2, ARPE-19, 16 h, read-out: EC50-HSV2-FBS
[6] = Human alphaherpesvirus 2, ARPE-19, read-out: EC50-HSV2-qPCR
[7] = Human alphaherpesvirus 2, ARPE-19, 16 h, read-out: EC50-HSV2-10% Human Serum
[8] = Human alphaherpesvirus 2, ARPE-19, read-out: EC50 in HSV qPCR assay

Row | Compound | Predicted human hepatic clearance [1] | EC50 (HSV-2 virus (MS strain) [2]; [5]) | EC50 (HSV-2 virus (MS strain) [3]; [6]) | EC50 (HSV-2 virus (MS strain) [2]; [7]) | CC50 at 5 days [4] | EC50 (HSV-2 virus (MS strain) [3]; [8]) | EC50 (HSV-2 virus (MS strain) [2]; Human alphaherpesvirus 2, ARPE-19, read-out: EC50 in HSV-2 Cellomics assay)
1 | C[C@H]1Cc2ccc(S(N)(=O)=O)cc2N1C(=O)[C@@H]1Cc2ccc(-c3ccccn3)cc2C1 (single isomer, unassigned) [Example 16] | 2 mL/min/kg | 0.775 µM |  |  |  |  | 
2 | CC1Cc2ccc(S(N)(=O)=O)cc2N1C(=O)C1Cc2ccc(-c3ccccn3)cc2C1 (centres unmarked) [Example 3] |  | 0.129 µM | 0.0185 µM | ≥ 25 µM |  |  | 
3 | NS(=O)(=O)c1cc2c(cc1F)CCN2C(=O)[C@@H]1Cc2ccc(-c3ccccn3)cc2C1 [Example 28] | 3.67 mL/min/kg | 0.006 µM |  | 8.44 µM | ≥ 50 µM |  | 
4 | C[C@H]1Cc2cc(F)c(S(N)(=O)=O)cc2N1C(=O)[C@@H]1Cc2ccc(-c3ccccn3)cc2C1 [Example 34] | 3.33 mL/min/kg | 0.158 µM |  | 1.57 µM |  |  | 
5 | NS(=O)(=O)c1cc2c(cc1F)CCN2C(=O)[C@@H]1Cc2ccc(-c3cc(F)ccc3F)cc2C1 [Example 58, (R)-1-(5-(2,5-difluorophenyl)-2,3-dihydro-1H-indene-2-carbonyl)-5-fluoroindoline-6-sulfonamide] | 5.33 mL/min/kg | 0.012 µM |  | 4.31 µM | ≥ 10 µM |  | 
6 | C[C@@H]1Cc2cc(Cl)c(S(N)(=O)=O)cc2N1C(=O)[C@@H]1Cc2ccc(-c3ccccn3)cc2C1 [Example 60, (R)-5-chloro-2-methyl-1-((R)-5-(pyridin-2-yl)-2,3-dihydro-1H-indene-2-carbonyl)indoline-6-sulfonamide] | 2.83 mL/min/kg | 0.013 µM |  | 0.434 µM | ≥ 10 µM |  | 
7 | C[C@@H]1Cc2cc(F)c(S(N)(=O)=O)cc2N1C(=O)[C@@H]1Cc2ccc(-c3cc(F)ccc3F)cc2C1 [Example 61, (R)-1-((R)-5-(2,5-difluorophenyl)-2,3-dihydro-1H-indene-2-carbonyl)-5-fluoro-2-methylindoline-6-sulfonamide] | 2.5 mL/min/kg | 0.028 µM |  | 0.169 µM | ≥ 10 µM |  | 
8 | NS(=O)(=O)c1ccc2c(c1)N(C(=O)C1Cc3ccc(-c4ccccc4F)cc3C1)CC2 (centres unmarked) [Example 70, 1-(5-(2-fluorophenyl)-2,3-dihydro-1H-indene-2-carbonyl) indoline-6-sulfonamide] |  | 0.091 µM | 0.0258 µM | ≥ 25 µM |  |  | 
9 | NS(=O)(=O)c1ccc2c(c1)N(C(=O)[C@@H]1Cc3ccc(-c4cccc(F)n4)cc3C1)CC2 [Example 85, (R)-1-(5-(6-fluoropyridin-2-yl)-2,3-dihydro-1H-indene-2-carbonyl)indoline-6-sulfonamide] |  | 0.0089 µM |  | 7.5 µM | 0.33 µM |  | 
10 | NS(=O)(=O)c1ccc2c(c1)N(C(=O)[C@H]1Cc3ccc(-c4cnccn4)cc3C1)CC2 [Example 86, (S)-1-(5-(pyrazin-2-yl)-2,3-dihydro-1H-indene-2-carbonyl)indoline-6-sulfonamide] |  | 0.455 µM |  |  | 28.5 µM |  | 
11 | NS(=O)(=O)c1ccc2c(c1)N(C(=O)[C@@H]1Cc3ccc(-c4cnccn4)cc3C1)CC2 [Example 87, (R)-1-(5-(pyrazin-2-yl)-2,3-dihydro-1H-indene-2-carbonyl)indoline-6-sulfonamide] | 5.17 mL/min/kg | 0.013 µM |  | 3.28 µM | 0.306 µM |  | 
12 | NS(=O)(=O)c1ccc2c(c1)N(C(=O)[C@H]1Cc3ccc(-c4ncccc4F)cc3C1)CC2 [Example 88, (S)-1-(5-(3-fluoropyridin-2-yl)-2,3-dihydro-1H-indene-2-carbonyl)indoline-6-sulfonamide] |  | 0.535 µM |  |  | 1.8 µM |  | 
13 | Cc1cccc(-c2ccc3c(c2)C[C@H](C(=O)N2CCc4ccc(S(N)(=O)=O)cc42)C3)n1 [Example 90, (R)-1-(5-(6-methylpyridin-2-yl)-2,3-dihydro-1H-indene-2-carbonyl)indoline-6-sulfonamide] |  | 0.023 µM |  | 14.6 µM | 36.9 µM |  | 
14 | NS(=O)(=O)c1ccc2c(c1)N(C(=O)[C@@H]1Cc3ccc(-n4cccn4)cc3C1)CC2 [Example 91, (R)-1-(5-(1H-pyrazol-1-yl)-2,3-dihydro-1H-indene-2-carbonyl)indoline-6-sulfonamide] |  | 0.04 µM |  | 11.6 µM | ≥ 50 µM |  | 
15 | CC1c2ccc(-c3ccccn3)cc2CC1C(=O)N1CCc2cc(F)c(S(N)(=O)=O)cc21 (centres unmarked) [Example 96, 5-fluoro-1-(1-methyl-5-(pyridin-2-yl)-2,3-dihydro-1H-indene-2-carbonyl) indoline-6-sulfonamide] |  | 0.024 µM |  | 0.085 µM | 12.9 µM |  | 
16 | Cc1cccc(-c2ccc3c(c2)CC(C(=O)N2CCc4cc(F)c(S(N)(=O)=O)cc42)C3C)n1 (centres unmarked) [Example 99, 5-fluoro-1-(1-methyl-5-(6-methylpyridin-2-yl)-2,3-dihydro-1H-indene-2-carbonyl) indoline-6-sulfonamide] |  | 0.063 µM |  | 0.396 µM | ≥ 10 µM |  | 
17 | CC1c2ccc(-n3cccn3)cc2CC1C(=O)N1CCc2cc(F)c(S(N)(=O)=O)cc21 (centres unmarked) [Example 100] |  | 0.034 µM |  | 0.107 µM | 5.43 µM |  | 
18 | C[C@H]1CN(C(=O)[C@H]2Cc3cc(-c4ccccn4)ccc3[C@@H]2C)c2cc(S(N)(=O)=O)c(F)cc21 [Example 104, (R)-5-fluoro-3-methyl-1-((1R,2S)-1-methyl-5-(pyridin-2-yl)-2,3-dihydro-1H-indene-2-carbonyl)indoline-6-sulfonamide] |  | 0.02 µM |  | 0.0644 µM | ≥ 10 µM |  | 
19 | CC1CN(C(=O)C2Cc3ccc(-c4ccccn4)cc3C2)c2cc(S(N)(=O)=O)ccc21 (centres unmarked) [Example 106, 3-Methyl-1-[5-(2-pyridyl)indane-2-carbonyl]indoline-6-sulfonamide] |  | 0.081 µM | 0.0109 µM |  |  |  | 
20 | CC[C@@H]1Cc2cc(F)c(S(N)(=O)=O)cc2N1C(=O)[C@@H]1Cc2ccc(-c3ccccn3)cc2C1 [Example 113] |  | 0.019 µM |  | 0.168 µM | ≥ 10 µM |  | 
21 | NS(=O)(=O)c1cc2c(cc1F)CCN2C(=O)C1Cc2ccc(-c3ccccn3)cc2O1 (centres unmarked) [Example 116, 5-fluoro-1-(6-(pyridin-2-yl)-2,3-dihydrobenzofuran-2-carbonyl)indoline-6-sulfonamide] | 0.83 mL/min/kg | 0.042 µM |  | 0.489 µM |  |  | 
22 | C[C@@H]1Cc2ccc(S(N)(=O)=O)cc2N1C(=O)[C@H]1Cc2cc(-c3cc(F)ccc3F)ccc2O1 [Example 123, (R)-1-((R)-5-(2,5-difluorophenyl)-2,3-dihydrobenzofuran-2-carbonyl)-2-methylindoline-6-sulfonamide] |  | 0.046 µM |  | 0.291 µM | ≥ 10 µM |  | 
23 | NS(=O)(=O)c1ccc2c(c1)N(C(=O)[C@@H]1Cc3ccc(-c4ccncn4)cc3C1)CC2 [Example 129, (R)-1-(5-(pyrimidin-4-yl)-2,3-dihydro-1H-indene-2-carbonyl)indoline-6-sulfonamide] | 17.5 mL/min/kg | 0.231 µM |  | 7.61 µM |  |  | 
24 | NS(=O)(=O)c1ccc2c(c1)N(C(=O)[C@@H]1Cc3ccc(-c4cccnc4)cc3C1)CC2 [Example 130, (R)-1-(5-(pyridin-3-yl)-2,3-dihydro-1H-indene-2-carbonyl)indoline-6-sulfonamide] | 7.5 mL/min/kg | 0.11 µM |  | ≥ 10 µM |  |  | 
25 | NS(=O)(=O)c1ccc2c(c1)N(C(=O)[C@@H]1Cc3ccc(-c4ccncc4)cc3C1)CC2 [Example 131, (R)-1-(5-(pyridin-4-yl)-2,3-dihydro-1H-indene-2-carbonyl)indoline-6-sulfonamide] | 9.5 mL/min/kg | 0.753 µM |  | ≥ 10 µM |  |  | 
26 | C[C@H]1Cc2cc(F)c(S(N)(=O)=O)cc2N1C(=O)[C@H]1Cc2ccc(-c3ccccn3)cc2C1 [Example 140, (S)-5-fluoro-2-methyl-1-((S)-5-(pyridin-2-yl)-2,3-dihydro-1H-indene-2-carbonyl)indoline-6-sulfonamide] | 6 mL/min/kg | ≥ 10 µM |  | ≥ 10 µM |  |  | 
27 | Nc1nc2c(ncn2COCCO)c(=O)[nH]1 [acyclovir, reference compound] |  |  |  |  |  | 1.25 µM | 
28 | Cc1cccc(C)c1N(CC(=O)Nc1ccc(-c2ncon2)cc1)C(=O)C1CCS(=O)(=O)CC1 [amenamevir, reference compound] |  |  |  |  |  | 0.014 µM | 
29 | Cc1nc(N(C)C(=O)Cc2ccc(-c3ccccn3)cc2)sc1S(N)(=O)=O [pritelivir, reference compound] |  |  |  |  |  | 0.014 µM | 0.15 µM
